# Where two headings read alike, the source gives them in different places.
# Legend:
# [1] = tested on: T1, human TRPM7 E1052A mutant; assay: Whole-cell recording of E1052A mutant TRPM7 currents in HEK293T cells; assay type: cell-based; conditions: 1 mM NM; 0.1 mM Ca2+ and 0.1 mM Mg2+; inward current at -100 mV
# T1 construct: expressed in transfected cells; host or cells: HEK293T
# Method: Electrophysiological recordings were made from HEK293T cells transfected wild-type (WT) human TRPM7 or the […], and the […] mutant channels, as previously described. Whole-cell and patch recordings were performed on HEK293T cells at room temperature (22-25°C) with Axopatch 200B (Molecular Devices, Sunnyvale, CA) amplifier. […] When required, 1 mM ethyleneglycol-bis-(α-amino-ethyl ether) N,N'-tetra-acetic acid (EGTA) was replaced with added CaCl2 and MgCl2 as indictated in results section. […] INM represents the current observed during application of NM.
# [2] = tested on: intracellular Ca2+ in cultured hippocampal neurons; assay: Fura-2 calcium imaging in cultured hippocampal neurons; assay type: cell-based, mouse
# Method: (§1) Time-pregnant Swiss mice (embryonic day 16) were anesthetized with halothane and were decapitated. Brains of fetuses were removed rapidly and placed in Ca^2+ and Mg^2+ free ice cold PBS. Whole hippocampus or cerebral cortices were dissected under a dissection microscope and incubated with 0.05% trypsin-EDTA for 10 min at 37°C, then triturated with fire-polished glass pipettes. Cells were counted and plated in poly-L-ornithine-coated culture dishes at a density of 1 × 10^6 cells per 35 mm diameter dish. Neurons were cultured with neurobasal medium supplemented with B27 and maintained at 37°C in a humidified 5% CO2 atmosphere incubator. Cultures were fed twice a week. Neurons at 14-21 day culture stages were used for electrophysiological recordings and calcium image.
# Fura-2 fluorescent Ca^2+ imaging was performed as described previously. Cortical or hippocampal neurons grown on 25 mm round glass coverslips were washed three times with ECF and incubated with 5 μM Fura-2-AM for ~ 40 min at room temperature. Neurons were then washed three times and incubated in normal ECF for 30 min. Coverslips with Fura-2-loaded neurons were transferred to a perfusion chamber on the stage of an inverted microscope (Nikon TE300, Tokyo, Japan). Cells were illuminated using a xenon lamp (75W) and observed with a 40 × UV fluor oil-immersion objective lens. Video images were obtained using a cooled CCD camera (Sensys KAF 1401, Photometrics, Tucson, AZ) mounted on an inverted microscope (Nikon TE300, Tokyo, Japan). Digitized images were acquired, stored, and analyzed in a PC controlled by Axon Imaging Workbench software (AIW2.1, Molecular Devices, Sunnyvale, CA). The shutter and filter wheel (Lambda 10-2, Sutter Instrument, Novato, CA) were also controlled by AIW to allow timed illumination of cells at 340 and 380 nm excitation wavelengths. Fura-2 fluorescence was detected at an emission wavelength of 510 nm. Ratio images of 340/380 nm were analyzed by averaging pixel ratio values in circumscribed regions of cells in the field of view. […]
# [3] = target: T2, wild-type (WT) human TRPM7 (Homo sapiens, UniProt Q96QT4); assay: Whole-cell recording of recombinant TRPM7 currents in transfected HEK293T cells (voltage ramps); assay type: cell-based
# T2 construct: expressed in transfected cells; host or cells: HEK293T
# T2 sequence (Q96QT4 whole entry): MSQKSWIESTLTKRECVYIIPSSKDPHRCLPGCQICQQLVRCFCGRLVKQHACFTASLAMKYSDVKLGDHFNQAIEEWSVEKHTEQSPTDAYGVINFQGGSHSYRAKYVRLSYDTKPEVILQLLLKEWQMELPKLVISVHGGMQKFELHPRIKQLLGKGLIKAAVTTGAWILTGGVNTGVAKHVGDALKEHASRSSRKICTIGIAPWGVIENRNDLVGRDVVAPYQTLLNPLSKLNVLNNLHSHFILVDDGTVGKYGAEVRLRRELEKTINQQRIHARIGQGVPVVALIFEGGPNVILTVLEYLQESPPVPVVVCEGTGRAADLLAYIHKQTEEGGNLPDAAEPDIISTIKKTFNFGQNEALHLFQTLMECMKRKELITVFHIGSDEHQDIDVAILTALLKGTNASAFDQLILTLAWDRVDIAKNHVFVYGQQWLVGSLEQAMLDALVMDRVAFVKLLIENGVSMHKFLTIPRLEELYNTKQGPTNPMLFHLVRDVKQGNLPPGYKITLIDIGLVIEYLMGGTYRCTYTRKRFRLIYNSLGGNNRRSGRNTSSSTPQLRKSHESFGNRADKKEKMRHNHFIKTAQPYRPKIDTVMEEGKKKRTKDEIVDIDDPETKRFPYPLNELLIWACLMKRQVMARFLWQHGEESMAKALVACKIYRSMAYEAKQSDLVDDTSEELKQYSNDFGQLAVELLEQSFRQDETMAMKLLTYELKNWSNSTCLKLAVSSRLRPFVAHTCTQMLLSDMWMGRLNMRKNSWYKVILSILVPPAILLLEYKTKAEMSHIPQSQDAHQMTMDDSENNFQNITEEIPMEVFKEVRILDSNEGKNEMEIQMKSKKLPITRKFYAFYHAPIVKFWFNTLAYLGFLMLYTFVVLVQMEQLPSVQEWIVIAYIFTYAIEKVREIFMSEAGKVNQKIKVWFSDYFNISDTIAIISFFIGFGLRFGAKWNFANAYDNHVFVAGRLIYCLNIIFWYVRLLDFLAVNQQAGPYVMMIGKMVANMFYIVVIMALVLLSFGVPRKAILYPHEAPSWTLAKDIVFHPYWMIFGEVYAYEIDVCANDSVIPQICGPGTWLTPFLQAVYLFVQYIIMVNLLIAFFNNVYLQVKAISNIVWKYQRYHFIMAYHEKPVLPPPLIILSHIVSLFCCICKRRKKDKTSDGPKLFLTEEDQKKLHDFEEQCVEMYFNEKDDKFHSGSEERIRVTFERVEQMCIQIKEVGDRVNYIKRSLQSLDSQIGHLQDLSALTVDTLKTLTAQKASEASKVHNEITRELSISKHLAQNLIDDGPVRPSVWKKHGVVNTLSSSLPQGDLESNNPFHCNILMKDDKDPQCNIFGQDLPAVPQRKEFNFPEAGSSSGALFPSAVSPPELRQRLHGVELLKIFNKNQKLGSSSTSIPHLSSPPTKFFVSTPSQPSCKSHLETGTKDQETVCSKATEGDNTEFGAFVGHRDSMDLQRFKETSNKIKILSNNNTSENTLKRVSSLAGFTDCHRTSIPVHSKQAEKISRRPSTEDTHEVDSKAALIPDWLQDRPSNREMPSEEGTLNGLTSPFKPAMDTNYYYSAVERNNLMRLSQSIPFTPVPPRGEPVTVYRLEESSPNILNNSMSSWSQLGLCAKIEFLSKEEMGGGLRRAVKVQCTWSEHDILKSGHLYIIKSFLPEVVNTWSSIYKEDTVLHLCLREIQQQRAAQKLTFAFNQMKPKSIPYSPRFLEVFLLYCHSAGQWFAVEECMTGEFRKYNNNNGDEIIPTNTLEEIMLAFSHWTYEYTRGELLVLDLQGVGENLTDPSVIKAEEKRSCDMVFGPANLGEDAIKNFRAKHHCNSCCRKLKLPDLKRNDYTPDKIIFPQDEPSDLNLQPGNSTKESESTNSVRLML
# Method: Electrophysiological recordings were made from HEK293T cells transfected wild-type (WT) human TRPM7 or the E1052A, and the D1054A mutant channels, as previously described.
# Whole-cell and patch recordings were performed on HEK293T cells at room temperature (22-25°C) with Axopatch 200B (Molecular Devices, Sunnyvale, CA) amplifier. For whole-cell recordings, the Cs^+-based bath solution contained (in mM) 100 Cs-aspartate, 1 EGTA, 10 N-2-Hydroxyethylpiperazine-N'-thanesulfonic acid (HEPES) and 120 mannitol (pH adjusted to 7.4 with CsOH). When required, 1 mM ethyleneglycol-bis-(α-amino-ethyl ether) N,N'-tetra-acetic acid (EGTA) was replaced with added CaCl2 and MgCl2 as indictated in results section. The pipette solution contained 100 Cs-aspartate, 1 EGTA, 10 HEPES, 0.5 CsCl, and 100 mannitol (pH 7.4). The inhibition ratio (%) was calculated according to the following equation: inhibition ratio (%) = 100 × [1 - (INM)/(ICtl)], where ICtl is whole-cell current observed before application of NM at +100 and -100 mV. INM represents the current observed during application of NM.
# Data were analyzed with Clampfit 9.2. (Molecular Devices, Sunnyvale, CA), Excel 2002 (Microsoft Corporation, Redmond, WA), Origin 5.0 (OriginLab Corp., Northhampton, MA) and finalized illustrated using CorelDraw X3 (Corel Corporation; Ontario, Canada). Currents were normalized to the amplitude of control responses. NM or DAPI inhibitory concentration-response plots were fitted to the logistic equation: I = (Amax-A0)/[1+(X/IC50)^n]+A0, where I is the normalized current amplitude, X is the antagonist concentration; n is Hill coefficient; IC50 is the concentration of antagonist that generate 50% of maximal inhibition. Results are reported for the text, the figures and amplitude histograms, as mean ± S.E.M. They represent the mean of n individual measurements on different cells. Statistical analysis was done with the unpaired or paired t-test, when appropriate. Chemicals are re-drawn based on the structures downloaded from Pubchem. NM was purchased from BioMol (Plymouth Meeting, PA) and its metabolites p-GBA and AN were from TCI and gabexate, DAPI, HSB from Sigma (St. Louis, MO).
# [4] = target: T3, TRPM7 current in cultured mouse hippocampal neurons (Mus musculus, UniProt Q923J1); assay: Whole-cell voltage clamp of TRPM7 currents in cultured hippocampal neurons (low divalent cation-induced or compound-activated); assay type: cell-based
# T3 construct: supports the substantial involvement of endogenous TRPM7 channels in the responses of neurons; endogenous in cells; host or cells: primary cultured hippocampal neurons from embryonic Swiss mice
# T3 sequence (Q923J1 whole entry): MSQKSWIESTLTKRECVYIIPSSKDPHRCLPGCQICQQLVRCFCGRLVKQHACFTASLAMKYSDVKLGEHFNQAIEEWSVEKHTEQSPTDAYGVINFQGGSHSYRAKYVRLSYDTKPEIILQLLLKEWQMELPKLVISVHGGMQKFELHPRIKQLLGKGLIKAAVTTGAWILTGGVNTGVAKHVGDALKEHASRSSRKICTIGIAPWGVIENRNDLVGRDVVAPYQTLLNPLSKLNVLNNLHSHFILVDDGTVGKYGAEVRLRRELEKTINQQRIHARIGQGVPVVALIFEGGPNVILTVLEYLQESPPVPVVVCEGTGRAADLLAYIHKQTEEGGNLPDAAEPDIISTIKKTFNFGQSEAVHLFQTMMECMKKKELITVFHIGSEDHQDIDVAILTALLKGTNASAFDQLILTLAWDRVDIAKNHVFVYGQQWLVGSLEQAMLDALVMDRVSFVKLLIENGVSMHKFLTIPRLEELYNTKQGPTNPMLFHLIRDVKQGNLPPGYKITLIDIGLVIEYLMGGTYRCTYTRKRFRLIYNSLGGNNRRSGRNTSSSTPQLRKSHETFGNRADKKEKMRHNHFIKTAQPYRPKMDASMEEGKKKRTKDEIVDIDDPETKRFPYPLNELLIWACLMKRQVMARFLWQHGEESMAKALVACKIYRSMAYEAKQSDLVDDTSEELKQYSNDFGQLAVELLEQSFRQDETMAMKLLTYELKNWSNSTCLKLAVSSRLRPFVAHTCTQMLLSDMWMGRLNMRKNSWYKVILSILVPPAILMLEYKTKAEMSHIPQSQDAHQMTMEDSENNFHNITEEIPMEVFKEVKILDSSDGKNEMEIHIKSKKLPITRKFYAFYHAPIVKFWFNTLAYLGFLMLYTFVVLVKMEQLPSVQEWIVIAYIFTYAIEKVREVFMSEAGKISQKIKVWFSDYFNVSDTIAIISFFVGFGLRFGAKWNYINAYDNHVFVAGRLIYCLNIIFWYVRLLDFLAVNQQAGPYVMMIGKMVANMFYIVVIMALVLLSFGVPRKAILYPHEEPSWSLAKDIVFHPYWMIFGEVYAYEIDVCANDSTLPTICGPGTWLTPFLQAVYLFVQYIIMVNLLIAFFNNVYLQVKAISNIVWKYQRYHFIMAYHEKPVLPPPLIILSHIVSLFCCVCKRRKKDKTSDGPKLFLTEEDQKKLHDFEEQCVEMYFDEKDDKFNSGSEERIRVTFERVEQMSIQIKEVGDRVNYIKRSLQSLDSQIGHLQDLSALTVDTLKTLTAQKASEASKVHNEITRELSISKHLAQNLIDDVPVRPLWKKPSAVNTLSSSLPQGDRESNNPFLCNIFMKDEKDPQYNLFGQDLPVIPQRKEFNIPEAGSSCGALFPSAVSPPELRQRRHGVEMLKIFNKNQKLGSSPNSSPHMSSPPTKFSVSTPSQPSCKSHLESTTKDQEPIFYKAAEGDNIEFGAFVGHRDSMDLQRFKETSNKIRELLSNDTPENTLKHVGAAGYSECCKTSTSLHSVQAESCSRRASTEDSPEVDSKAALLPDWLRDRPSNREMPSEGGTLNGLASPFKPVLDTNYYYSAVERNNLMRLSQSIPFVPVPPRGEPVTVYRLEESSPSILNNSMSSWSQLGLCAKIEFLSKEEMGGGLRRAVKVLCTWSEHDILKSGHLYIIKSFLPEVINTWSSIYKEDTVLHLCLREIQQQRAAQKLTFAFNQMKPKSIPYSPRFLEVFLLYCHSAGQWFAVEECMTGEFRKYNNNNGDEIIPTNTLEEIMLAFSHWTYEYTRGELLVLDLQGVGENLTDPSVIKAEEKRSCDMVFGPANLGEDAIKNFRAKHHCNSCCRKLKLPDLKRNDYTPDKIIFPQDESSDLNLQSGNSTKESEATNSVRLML
# [5] = tested on: intracellular Ca2+ in cultured mouse cortical neurons; assay: Fura-2 calcium imaging in cultured cortical neurons; assay type: cell-based; conditions: NM 50 μM; without NM 1.17 ± 0.03
# Method: as §1
# Fura-2 fluorescent Ca^2+ imaging was performed as described previously. Cortical or hippocampal neurons grown on 25 mm round glass coverslips were washed three times with ECF and incubated with 5 μM Fura-2-AM for ~ 40 min at room temperature. […] Digitized images were acquired, stored, and analyzed in a PC controlled by Axon Imaging Workbench software (AIW2.1, Molecular Devices, Sunnyvale, CA). […] Fura-2 fluorescence was detected at an emission wavelength of 510 nm. Ratio images of 340/380 nm were analyzed by averaging pixel ratio values in circumscribed regions of cells in the field of view. […]
# [6] = 200 μM, 0.1 mM Ca2+ and 0.1 mM Mg2+
smiles,measurement,setting,value
"N=C(N)c1ccc2cc(OC(=O)c3ccc(N=C(N)N)cc3)ccc2c1 [NM, 6-amidino-2-naphthyl-4-guanidinobenzobate dimethanesulfonate]","inhibition by NM of currents, relative to WT",[1],strongly depressed
same,NM-induced change of intracellular concentration of Ca2+,"[2]; 200 μM, 2 mM Ca2+, no Mg2+, MK801, CNQX, nimodipine present",induced an increase
same,net increase of 340/380 ratio on lowering extracellular Ca2+,"[2]; NM 50 μM, Ca2+ from 2.0 mM to 0.5 mM, no added Mg2+, without NM 2.64 ± 0.48",0.61 ± 0.32
same,net increase of 340/380 ratio induced by KCl,"[2]; NM 50 μM, KCl 50 mM, 1.67 in the absence of NM",1.84
same,effect on blocking potency of extracellular divalent cations,[3]; 500 μM NM,substantially reduced the blocking potency
same,increase of inhibitory potency in divalent-free solution versus 0.1 mM divalents,[3]; +100 mV,about 5 fold
same,Hill coefficient,"[3]; +100 mV, 0.1 mM Ca2+ and 0.1 mM Mg2+",1.4
same,IC50,"[3]; +100 mV, 0.1 mM Ca2+ and 0.1 mM Mg2+, read-out: IC50, inhibition of outward TRPM7 current",617 µM
same,Hill coefficient,"[3]; +100 mV, divalent free solution",1.2
same,IC50,"[3]; +100 mV, divalent free solution, read-out: IC50, inhibition of TRPM7 current",121 µM
same,increase of inhibitory potency in divalent-free solution versus 0.1 mM divalents,[3]; -100 mV,30 fold
same,Hill coefficient,"[3]; -100 mV, 0.1 mM Ca2+ and 0.1 mM Mg2+",1.3
same,IC50,"[3]; -100 mV, 0.1 mM Ca2+ and 0.1 mM Mg2+, read-out: IC50, inhibition of inward TRPM7 current",514 µM
same,Hill coefficient,"[3]; -100 mV, divalent free solution",1.3
same,IC50,"[3]; -100 mV, divalent free solution, read-out: IC50, inhibition of TRPM7 current",15 µM
same,potentiation of TRPM7 currents,"[3]; TRPM7-transfected HEK293T cells, ramp-clamp, inward currents at -100 mV",potentiates
same,inhibition of TRPM7 currents,[3]; in the presence of 1 mM Ca2+ and Mg2+,failed to inhibit
same,direct activation of TRPM7 current at physiological divalent cations,"[4]; 25 μM, 2 mM Ca2+ and 1 mM Mg2+",little effects
same,amplitude of NM-induced current,[4]; 0.1 mM Ca2+ (with 0.1 Mg2+),1018 ± 120 pA
same,"potentiation of evoked TRPM7 current, pre-exposed","[4]; 200 μM applied before lowering divalent cations, current evoked by 0.1 mM Ca2+ and 0.1 mM Mg2+",about 3.6 ± 0.4 fold
same,offset time constant of inhibition,[4]; [6],1.07 ± 0.20 s
same,onset time constant of inhibition,[4]; [6],0.29 ± 0.04 s
same,direct activation of TRPM7 current at physiological divalent cations,"[4]; 200 μM, 2 mM Ca2+ and 1 mM Mg2+",induced small inward currents
same,current amplitude upon NM washout,"[4]; 200 μM, 2 mM Ca2+ and 1 mM Mg2+, brief washout",379 ± 86 pA
same,amplitude of NM-induced current,"[4]; 200 μM, 2 mM Ca2+ and 1 mM Mg2+, during application",243 ± 66 pA
same,reversal potential of NM-induced current,"[4]; 200 μM, 2 mM Ca2+ and 1 mM Mg2+, voltage ramps",0 mV
same,"block of TRPM7 current, co-applied","[4]; 200 μM, current evoked by 0.1 mM Ca2+ and 0.1 mM Mg2+",completely blocks
same,"block of TRPM7 current, co-applied","[4]; 200 μM, current evoked by zero divalent cations",reversibly blocked
same,amplitude of NM-induced current,[4]; 2 mM Ca2+ (with 1 mM Mg2+),291 ± 52 pA
same,amplitude of NM-induced current,[4]; 10 mM Ca2+ (with 1 mM Mg2+),147 ± 20 pA
same,Hill coefficient,[4]; current evoked by 0.1 mM Ca2+ and 0.1 mM Mg2+,1.4
same,IC50,"[4]; current evoked by 0.1 mM Ca2+ and 0.1 mM Mg2+, -60 mV, acutely applied, read-out: IC50, block of TRPM7 current",27 µM
same,net increase of 340/380 ratio on lowering extracellular Ca2+,[5],0.20 ± 0.08
